# Source: patent US4329341A, “5-Phenyl-1,3,4,5-tetrahydro-2H-1,4-benzodiazepin-2-ones, and pharmaceutical compositions containing them” (Richter Gedeon Vegyeszeti Gyar Rt, priority 1980, dated 1982)
# What was measured:
# CFLP male mice = assay: Potentiation of activity of sodium-barbital (measurement of the sedative activity); format: in vivo; conditions: for Number of the test animals fallen asleep in % of the control: 20 mg./kg. i.p., after one hour Na-barbital 100 mg./kg. i.p.
# Protocol: Determination of the potentiation of activity of sodium-barbital (measurement of the sedative activity)
# In the tests carried out [see S. Goldschmidt and R. Wohr: Z. physiol. Chem. 308, 9 /1957/; D. V. Parker: J. Pharm. Pharmac. 27, 729 /1975/] the test animals were pretreated with a 20 mg./kg. i.p. dose of the test compounds of the general formula (I) and after one hour were administered a 100 mg./kg. i.p. dose of Na-barbital.
# (§1) As test animals CFLP male mice weighing […]. were used.
# [1] = test system: NADPH-depending multifunctional oxydase enzyme system of the liver; assay: Hexobarbital-induced sleeping time (measurement of enzyme inducing activity); format: in vivo, CFLP male mice; conditions: for Hexobarbital-sleeping time, 1-hour pretreatment, average ± SE / Hexobarbital-sleeping time, 1-hour pretreatment, Δ% (percentage change related to the control) / Hexobarbital-sleeping time, 24-hour pretreatment, Δ% (percentage change related to the control) / Hexobarbital-sleeping time, 24-hour pretreatment, average ± SE: 40 mg./kg. p.o., hexobarbital 60 mg./kg. i.v.; for Hexobarbital-sleeping time, 1-hour pretreatment, average ± SE: control 35 ± 2.38; for Hexobarbital-sleeping time, 1-hour pretreatment, Δ% (percentage change related to the control) / Hexobarbital-sleeping time, 24-hour pretreatment, average ± SE: x: p < 0.001 compared to the control; for Hexobarbital-sleeping time, 24-hour pretreatment, average ± SE: control 34 ± 2.60
# Source text: The biological activity and duration of activity of different endogenic and exogenic compounds are greatly influenced by the activity of the NADPH- (nicotinic acid amide-adenine-dinucleotide phosphate-) depending multifunctional oxydase enzyme system of the liver. There are numerous compounds known in the art, showing various pharmacological activities, which are capable of increasing or inducing the activity of the metabolising, multifunctional oxydase enzyme system of the liver [see e.g. Sher, S.P.: Toxicol. appl. Pharmacol. 18, 780 /1971/; G. J. Mannering: in A. Burger's Selected Pharmacological Testing Methods, 51-119 S., Marcel Dekker Inc., New York /1968/]. […] Therefore phenobarbital can successfully be used in the treatment of Czigler-Najjar and Cilbert syndroms and neonatal hyperbilirubinemia, though due to its hypnotic-sedative effect the inducing activity of this compound is not optimal [Vessel and J. E. Page: J. Clin. Invest. 48, 2202 /1969/; J. T. Wilson: Pediatrics 43, 424 /1969/].
# For screening the enzyme inducing activity the change in the hexobarbital-induced sleeping time is conventionally measured. The inducing activity of the compounds of the general formula (I) according to the invention was compared to the corresponding activity of phenobarbital and to their own sedative effect, using the following test methods.
# Determination of the sleeping time induced by hexobarbital (measurement of enzyme inducing activity)
# After (a) one hour and (b) after 24-hour pretreatment with a 40 mg./kg. p.o. dose of the test compounds, the groups of test animals were administered a 60 mg./kg. i.v. dose of hexobarbital.
# as §1
# [2] = test system: metabolysing enzyme system of the liver; conditions: diseases caused by defectiveness of the metabolysing enzyme system of the liver; cited from earlier work
# Acute toxicity (p.o.) = assay: Acute toxicity (p.o.); set-up: species or system CFLP male mice; conditions: mouse, in vivo, po, 14 days
# Protocol: To the test animals 250 and 500 mg./kg. doses, resp. of the test compounds were administered orally and the number of the dead animals was registered for 14 days.
# as §1
Compound,Number of the test animals fallen asleep in % of the control (CFLP male mice),"Hexobarbital-sleeping time, 1-hour pretreatment, average ± SE ([1]; 1-hour pretreatment) [min]","Hexobarbital-sleeping time, 1-hour pretreatment, Δ% (percentage change related to the control) ([1]; 1-hour pretreatment)","Hexobarbital-sleeping time, 24-hour pretreatment, Δ% (percentage change related to the control) [1] [%]","Hexobarbital-sleeping time, 24-hour pretreatment, average ± SE [1] [min]","Sleeping time 1 hour after administration, in words ([1]; 1-hour pretreatment)",Narcotic effect of Na-barbital alone (CFLP male mice; 100 mg./kg. i.p. Na-barbital),Increase of sleeping time relative to its original value ([1]; 1-hour pretreatment) [times],"Inducing activity in human diseases, in words [2]",LD50 at 336 h (Acute toxicity (p.o.)) [mg/kg]
"C[C@@H]1C(=O)N(C)c2ccc(Cl)cc2[C@@H](c2ccccc2)N1C(N)=O (relative stereo) [Example 5, 3RS,5RS-1,3-Dimethyl-4-carbamoyl-5-phenyl-7-chloro-1,3,4,5-tetrahydro-2H-1,4-benzodiazepin-2-one]",20%,37.3 ± 3.01,+6%,-73,9 ± 0.43,most favourable properties,–,–,–,–
"CCC1(CC)C(=O)NC(=O)NC1=O [Na-barbital, sodium-barbital, reference compound]",–,–,–,–,–,–,no narcotic effect,–,–,–
"C[C@@H]1C(=O)N(C)c2ccc(Cl)cc2[C@@H](c2ccccc2)N1C(N)=O [Example 4, 3R,5R-1,3-Dimethyl-4-carbamoyl-5-phenyl-7-chloro-1,3,4,5-tetrahydro-2H-1,4-benzodiazepin-2-one]",.phi.,43.3 ± 5.01,+23%,-71,9.9 ± 0.62,most favourable properties,–,–,–,–
"C[C@H]1C(=O)N(C)c2ccc(Cl)cc2[C@H](c2ccccc2)N1C(N)=O [Example 3, 3S,5S-1,3-Dimethyl-4-carbamoyl-5-phenyl-7-chloro-1,3,4,5-tetrahydro-2H-1,4-benzodiazepin-2-one]",0%,43.3 ± 4.18,+23%,-65,12.0 ± 0.83,most favourable properties,–,–,–,–
"C[C@H]1N[C@H](c2ccccc2)c2cc(Cl)ccc2N(C)C1=O [Example 2, 3R,5R-1,3-Dimethyl-5-phenyl-7-chloro-1,3,4,5-tetrahydro-2H-1,4-benzodiazepin-2-one]",.phi.,61.2 ± 5.21,+73%,-61,13.3 ± 0.54,–,–,–,–,–
"C[C@@H]1N[C@@H](c2ccccc2)c2cc(Cl)ccc2N(C)C1=O [Example 1, 3S,5S-1,3-Dimethyl-5-phenyl-7-chloro-1,3,4,5-tetrahydro-2H-1,4-benzodiazepin-2-one]",50%,67.2 ± 7.01,+91%,-43,19.5 ± 1.84,–,–,–,–,–
"CCC1(c2ccccc2)C(=O)NC(=O)NC1=O [Phenobarbital, reference compound]",60%,86.2 ± 7.51,+145%,-69,11.2 ± 0.35,–,–,~3,shows an inducing activity in the case of human diseases,191
